Measured values: ChEMBL document CHEMBL2331078, “Quantitative purity-activity relationships of natural products: the case of anti-tuberculosis active triterpenes from Oplopanax horridus” (2013)
Values after ≈ are worked out from the molar mass of the structure shown. Active and inactive are the calls of the source. The calls are words filed in the database; no cut-off is given here.

What was measured:
[1] = system: Mycobacterium tuberculosis; assay: Antimycobacterial activity against Mycobacterium tuberculosis; format: functional
[2] = system: Mycobacterium tuberculosis; assay: Antimycobacterial activity against Mycobacterium tuberculosis H37Rv ATCC 27294 by Alamar blue assay; format: functional, organism-based

SMILES | MIC [1] [µg/mL] | Activity [2]
CC1(C)CC[C@]2(C(=O)O)CC[C@]3(C)C(=CC[C@@H]4[C@@]5(C)CC[C@H](O)C(C)(C)[C@@H]5CC[C@]43C)[C@@H]2C1 [OLEANOLIC_ACID] | 29 (≈ 63.5 µM) | –
CC1(C)CC[C@]2(C(=O)O)CC[C@]3(C)C(=CC[C@@H]4[C@@]5(C)CC[C@@H](O)[C@@](C)(C(=O)O)[C@@H]5CC[C@]43C)[C@@H]2C1 | – | Active
C=C(C)[C@@H]1CC[C@]2(C(=O)O)CC[C@]3(C)[C@H](CC[C@@H]4[C@@]5(C)CC[C@H](O)C(C)(C)[C@@H]5CC[C@]43C)[C@@H]12 [BETULINIC ACID] | 62 (≈ 136 µM) | –
C=C(C)[C@@H]1CC[C@]2(C(=O)O)CC[C@]3(C)[C@H](CC[C@@H]4[C@@]5(C)CC[C@@H](O)[C@@](C)(C(=O)O)[C@@H]5CC[C@]43C)[C@@H]12 | 54 (≈ 111 µM) | Active
